Reference: patent US20040224981A1, “Antibacterial methods and compositions” (priority 2003, published 2004)
Like-named read-outs stand apart in the source and are kept apart here.

What was measured:
[1] = tested on: S. aureus; assay: MIC against S. aureus strains and clinical isolates (broth microdilution); assay type: cell-based, Staphylococcus aureus; details: for MIC50: read-out: MIC50
Method in brief: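 Broth microdilution per NCCLS in cation-supplemented Mueller-Hinton broth, final inoculum 5×10^5 CFU/ml from 0.5 McFarland suspensions diluted 1:10. Trays incubated aerobically overnight with quality control strains each run. Checkerboard FIC index: ≦0.5 synergy, >0.5 to 4 additive/indifferent, >4.0 antagonism.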

[2] = tested on: S. pyogenes; assay: MIC against S. pyogenes; assay type: cell-based, Streptococcus pyogenes
Method: The MRS inhibitor 4 alone and in combination with mupirocin (mupirocin salt and 1:1 combination) were tested against a collection of Gram-positive pathogens.
S. pyogenes is also a significant skin pathogen and 48 recent clinical isolates were tested for their susceptibility to MRSi compound 5 alone (acetate) and in combination (1:1) with mupirocin (mupirocinate).

[3] = tested on: S. epidermidis; assay: MIC against S. epidermidis; assay type: cell-based
[4] = 48 recent clinical isolates of S. pyogenes

Structure (SMILES): C/C(=C\C(=O)OCCCCCCCCC(=O)O)C[C@@H]1OC[C@H](C[C@@H]2O[C@H]2[C@@H](C)[C@H](C)O)[C@@H](O)[C@H]1O [Mupirocin, Pseudomonic acid A]
- MIC ([1]; Staphylococcus aureus, S. aureus 31-1334 (LL Mup Rest.), read-out: MIC): 32 µg/mL
- MIC ([1]; Staphylococcus aureus, S. aureus 36-1298 (LL Mup. Rest.), read-out: MIC): 32 µg/mL
- MIC ([1]; Staphylococcus aureus, S. aureus 87-2797 (HL Mup. Rest.), read-out: MIC): > 64 µg/mL
- MIC ([1]; Staphylococcus aureus, S. aureus 87-2797 (Mup. Susc.), read-out: MIC): 0.25 µg/mL
- MIC ([1]; Staphylococcus aureus, S. aureus 101-100 (Mup. Susc.), read-out: MIC): < 0.06 µg/mL
- MIC ([1]; Staphylococcus aureus, S. aureus LZ1 (HL Mup rest.), read-out: MIC): > 64 µg/mL
- MIC ([1]; Staphylococcus aureus, S. aureus LZ6 (HL Mup rest.), read-out: MIC): > 64 µg/mL
- MIC ([1]; Staphylococcus aureus, S. aureus LZ8 (LL Mup. Rest.), read-out: MIC): 32 µg/mL
- MIC ([1]; Staphylococcus aureus, S. aureus LZ9, read-out: MIC): 0.25 µg/mL
- MIC ([1]; Staphylococcus aureus, S. aureus LZ10, read-out: MIC): 0.25 µg/mL
- MIC ([1]; Staphylococcus aureus, S. aureus Miles Hall, read-out: MIC): 64 µg/mL
- MIC ([1]; Staphylococcus aureus, S. aureus Oxford, read-out: MIC): 0.12 µg/mL
- MIC ([1]; Staphylococcus aureus, Table 6, S. aureus (mupirocin-susceptible) 010-100, read-out: MIC): 0.06 µg/mL
- MIC ([1]; Staphylococcus aureus, Table 6, S. aureus (mupirocin-susceptible) 087-2789, read-out: MIC): 0.12 µg/mL
- MIC ([1]; Staphylococcus aureus, Table 6, S. aureus (mupirocin-susceptible) LZ9, read-out: MIC): 0.12 µg/mL
- MIC ([1]; Staphylococcus aureus, Table 6, S. aureus (mupirocin-susceptible) LZ10, read-out: MIC): 0.12 µg/mL
- MIC ([1]; Staphylococcus aureus, Table 6, high-level mupirocin-resistant S. aureus 010-420, read-out: MIC): > 256 µg/mL
- MIC ([1]; Staphylococcus aureus, Table 6, high-level mupirocin-resistant S. aureus 25-670, read-out: MIC): > 256 µg/mL
- MIC ([1]; Staphylococcus aureus, Table 6, high-level mupirocin-resistant S. aureus 87-2797, read-out: MIC): > 256 µg/mL
- MIC ([1]; Staphylococcus aureus, Table 6, high-level mupirocin-resistant S. aureus 1079101, read-out: MIC): > 256 µg/mL
- MIC ([1]; Staphylococcus aureus, Table 6, high-level mupirocin-resistant S. aureus LZ1, read-out: MIC): > 256 µg/mL
- MIC ([1]; Staphylococcus aureus, Table 6, high-level mupirocin-resistant S. aureus LZ6, read-out: MIC): > 256 µg/mL
- MIC ([1]; Staphylococcus aureus, Table 6, low-level mupirocin-resistant S. aureus 014-354, read-out: MIC): 16 µg/mL
- MIC ([1]; Staphylococcus aureus, Table 6, low-level mupirocin-resistant S. aureus 031-1334, read-out: MIC): 16 µg/mL
- MIC ([1]; Staphylococcus aureus, Table 6, low-level mupirocin-resistant S. aureus 036-1298, read-out: MIC): 16 µg/mL
- MIC ([1]; Staphylococcus aureus, Table 6, low-level mupirocin-resistant S. aureus 1081148, read-out: MIC): 16 µg/mL
- MIC ([1]; Staphylococcus aureus, Table 6, low-level mupirocin-resistant S. aureus LZ8, read-out: MIC): 16 µg/mL
- MIC ([1]; Staphylococcus aureus, Table 6, low-level mupirocin-resistant S. aureus Miles Hall, read-out: MIC): 32 µg/mL
- MIC ([1]; Staphylococcus aureus, VISA, three of the VISA isolates (poor activity), read-out: MICs): > 8 µg/mL
- MIC50 ([1]; Staphylococcus aureus, all S. aureus isolates of Table 6): 32 µg/mL
- MIC90 ([1]; Staphylococcus aureus, all S. aureus isolates of Table 6, read-out: MIC90): > 256 µg/mL
- MIC90 ([1]; Staphylococcus aureus, all S. aureus strains of Table 1, read-out: MIC 90): > 64 µg/mL
- MIC50 ([1]; Staphylococcus aureus, oxacillin-resistant S. aureus, Oxa-R (42)): 0.12 µg/mL
- MIC90 ([1]; Staphylococcus aureus, oxacillin-resistant S. aureus, Oxa-R (42), read-out: MIC90): > 8 µg/mL
- MIC ([1]; Staphylococcus aureus, oxacillin-resistant S. aureus, Oxa-R (42), read-out: MIC Mode): 0.12 µg/mL
- MIC50 ([1]; Staphylococcus aureus, oxacillin-susceptible S. aureus, Oxa-S (20)): 0.12 µg/mL
- MIC90 ([1]; Staphylococcus aureus, oxacillin-susceptible S. aureus, Oxa-S (20), read-out: MIC90): > 8 µg/mL
- MIC ([1]; Staphylococcus aureus, oxacillin-susceptible S. aureus, Oxa-S (20), read-out: MIC Mode): 0.12 µg/mL
- MIC50 ([1]; Staphylococcus aureus, recent clinical isolates of S. aureus, All (62)): 0.12 µg/mL
- MIC90 ([1]; Staphylococcus aureus, recent clinical isolates of S. aureus, All (62), read-out: MIC90): > 8 µg/mL
- MIC ([1]; Staphylococcus aureus, recent clinical isolates of S. aureus, All (62), read-out: MIC Mode): 0.12 µg/mL
- MIC ([1]; Table 12, S. aureus 25-670, high level mupirocin-resistant, agent alone): >128 8 g/mL
- MIC50 [2, 4]: 0.12 µg/mL
- MIC90 [2, 4]: 0.25 µg/mL
- Mode (MIC) [2, 4]: 0.12 µg/mL
- MIC Range ([2]; 48 recent clinical isolates of S. pyogenes, in µg/mL): 0.03-0.5
- MIC ([2]; Streptococcus pyogenes, ATCC19615, Table 2, S. pyogenes ATCC 19615, read-out: MIC): 0.12 µg/mL
- MIC ([2]; Streptococcus pyogenes, Table 2, S. pyogenes MB143 (macrolide rest.), read-out: MIC): 0.12 µg/mL
- MIC ([2]; Table 3, S. pyogenes ATCC 19615): 0.12 µg/mL
- MIC ([2]; Table 3, S. pyogenes MB143 (macrolide rest.)): 0.12 µg/mL
- MIC ([2]; Table 4, S. pyogenes ATCC 19615): 0.12 µg/mL
- MIC ([2]; Table 4, S. pyogenes MB000143): 0.12 µg/mL
- MIC ([3]; Staphylococcus epidermidis, Table 2, S. epidermidis NRS6, read-out: MIC): > 8 µg/mL
- MIC ([3]; Staphylococcus epidermidis, Table 2, S. epidermidis NRS7, read-out: MIC): 8 µg/mL
- MIC ([3]; Staphylococcus epidermidis, Table 2, S. epidermidis NRS8, read-out: MIC): > 8 µg/mL
- MIC ([3]; Table 3, S. epidermidis NRS6): >8 µg/mL
- MIC ([3]; Table 3, S. epidermidis NRS7): 8 µg/mL
- MIC ([3]; Table 3, S. epidermidis NRS8): >8 µg/mL
- MIC ([3]; Table 4, S. epidermidis NRS6): >8 µg/mL
- MIC ([3]; Table 4, S. epidermidis NRS7): 8 µg/mL
- MIC ([3]; Table 4, S. epidermidis NRS8): >8 µg/mL
